Assay results as given in BindingDB's records for doi:10.1016/j.bmc.2015.04.057 (Beni-Suef University, 2015).
pIC50: −log10 of the molar value.

assay: Antiinflammatory activity in mouse RAW264.7 cells assessed as inhibition of LPS-induced iNOS activity incubated for 30 mins prior to LPS challenge measured after 24 hrs by Griess assay

| Structure (SMILES) | pIC50 |
| --- | --- |
| O=c1sc2ccccc2n1CCCN1CCN(CCCn2c(=O)sc3ccccc32)CC1 | 5.34 |
| O=c1sc2ccccc2n1CCCCCN1CCN(CCCCCn2c(=O)sc3ccccc32)CC1 | 6.39 |
| O=c1sc2ccccc2n1CCCCCCN1CCN(CCCCCCn2c(=O)sc3ccccc32)CC1 | 6.55 |
| O=c1oc2ccccc2n1CCCCCN1CCN(CCn2c(=O)oc3ccccc32)CC1 | 5.30 |
| O=c1sc2ccccc2n1CCCCCN1CCN(CCn2c(=O)sc3ccccc32)CC1 | 5.35 |
| O=c1sc2ccccc2n1CCCCCCN1CCN(CCn2c(=O)sc3ccccc32)CC1 | 5.46 |
| O=c1sc2ccccc2n1CCCCN1CCN(CCCn2c(=O)sc3ccccc32)CC1 | 5.35 |
| O=c1sc2ccccc2n1CCCCCN1CCN(CCCn2c(=O)sc3ccccc32)CC1 | 5.59 |
| O=c1sc2ccccc2n1CCCCCCN1CCN(CCCn2c(=O)sc3ccccc32)CC1 | 5.59 |
| O=c1sc2ccccc2n1CCCCCCN1CCN(CCCCn2c(=O)sc3ccccc32)CC1 | 6.29 |
| O=c1sc2ccccc2n1CCCCCCN1CCN(CCCCCn2c(=O)sc3ccccc32)CC1 | 6.54 |
| c1ccc2oc(SCCCCN3CCN(CCCCSc4nc5ccccc5o4)CC3)nc2c1 | 5.95 |
| c1ccc2sc(SCCCCN3CCN(CCCCSc4nc5ccccc5s4)CC3)nc2c1 | 6.39 |

More lines, now with the values ahead:

| pIC50 | Structure (SMILES) |
| --- | --- |
| 5.35 | O=c1oc2ccccc2n1CCCCCN1CCN(CCCCCn2c(=O)oc3ccccc32)CC1 |
| 5.37 | O=c1oc2ccccc2n1CCCCCCN1CCN(CCCCCCn2c(=O)oc3ccccc32)CC1 |
| 5.33 | O=c1oc2ccccc2n1CCCCCCN1CCN(CCn2c(=O)oc3ccccc32)CC1 |
| 5.31 | O=c1oc2ccccc2n1CCCCCN1CCN(CCCn2c(=O)oc3ccccc32)CC1 |
| 5.35 | O=c1oc2ccccc2n1CCCCCCN1CCN(CCCn2c(=O)oc3ccccc32)CC1 |
| 5.34 | O=c1oc2ccccc2n1CCCCCN1CCN(CCCCn2c(=O)oc3ccccc32)CC1 |
| 5.75 | O=c1oc2ccccc2n1CCCCCCN1CCN(CCCCn2c(=O)oc3ccccc32)CC1 |
| 5.54 | O=c1oc2ccccc2n1CCCCCCN1CCN(CCCCCn2c(=O)oc3ccccc32)CC1 |
